Laboratory results reported in EP2815749A1, “Solid form of 4-amino-2-(2,6-dioxopiperidine-3-yl)isoindoline-1,3-dione having specified X-ray diffraction pattern” (IP Gesellschaft für Management mbH, priority 2013, dated 2014).
In brackets after ≈: the same amount, converted by molar mass. Read-outs that look alike come from different tables or passages of the source.

Columns and labels:
[1] = Solubility of pomalidomide in various solvents; format: physicochemical; conditions: ambient temperature
Protocol: Pomalidomide Polymorph Preparations: A weighed sample of pomalidomide (about 100 mg) was treated with 2 mL of a test solvent. The solvents used were either reagent or HPLC grade. The resulting mixture was agitated for at least 24 hours at 25°C. When all of the solids were dissolved by visual inspection, the estimated solubilities were calculated. The solubility was estimated from these experiments based on the total volume of solvent used to give a solution. The actual solubility may be greater than those calculated due to the use of a large amount of solvent or to a slow rate of dissolution. […] A known volume of filtrate was evaporated to dryness and the weight of the residue was measured. Equilibration and evaporation experiments were carried out by adding an excess of pomalidomide to 4 mL of a test solvent. The resulting mixture was agitated for at least 24 hours at 25°C and 50°C separately. Upon reaching equilibrium, the saturated solution was removed and allowed to evaporate slowly in an open vial under nitrogen at 25°C and 50°C respectively. The slurry resulting from the equilibration was filtered and dried in the air. Crystallizations using cooling methods were performed. The solid was dissolved in a solvent at an elevated temperature, approximately 80°C and allowed to cool to room temperature. […] Solids were isolated by decantation and allowed to dry in the air. Precipitation studies were carried out by solvent/anti-solvent combinations. The solid was dissolved in a solvent in which pomalidomide solubility was high, and then a selected solvent in which pomalidomide was highly insoluble (anti-solvent) was added to the solution. A precipitate formed immediately in some solvent/anti-solvent systems. […] The precipitate was then isolated by decantation and allowed to dry in the air. All of the samples generated as described in the polymorph preparation study were analyzed by XRPD. X PD was conducted on a Thermo ARL X'TRA X-ray powder diffractometer using Cu Kcc radiation at 1.54 A. The instrument was equipped with a fine focus X-ray tube. The voltage and amperage of X-ray generator were set at 45 kV and 40 mA, respectively. The divergence slices were set at 4 mm and 2 mm and the measuring slices were set at 0.5 mm and 0.2 mm. Diffracted radiation was detected by peitier-cooled Si(Li) solid state detector. A theta-two theta continuous scan at 2.40°/min (0.5 sec/0.02c step) from 1.5° 20 to 40° 2.0 was used. A sintered alumina standard was used to check the peak position. DSC analyses were performed on a TA instrument Q1000. Indium was used as calibration standards. Approximately 2-5 mg of sample was placed into a DSC pan and the weight was accurately recorded. The sample was heated under nitrogen at a rate of 10°C/min, up to a final temperature of 350°C. Melting points were reported as extrapolated onset temperature. TG analyses were performed on a TA instrument Q500. Calcium oxalate was used for performance check. Approximately 10-25 mg of sample was placed on a pan, accurately weighed and loaded into the TG furnace. The sample was heated under nitrogen at a rate of 10°C/min, up to a final temperature of 350°C. Morphology and particle size analysis of the samples were carried out on an Olympus microscope. The instrument was calibrated with USP standards. Hygroscopicity was determined on a Surface Measurement Systems DVS. Typically a sample size of 10-50 mg was loaded into the DVS instrument sample pan and the sample was analyzed on a DVS automated sorption analyzer at 25°C. The relative humidity was increased in 10% increments from 0% to 95% RH. The relative humidity was then decreased in a similar mariner to accomplish a full adsosption/desorption cycle. […]

[2] = Approximate solubility of pomalidomide at 50°C in 96 solvent compositions (LC); format: physicochemical; conditions: binary solvent composition (main solvent and co-solvent), 50 °C, organic solvent or mixture, thermodynamic from solid
Protocol: Pomalidomide Solid Form Preparations: Preparation of solid form of pomalidomide was conducted by equilibrating pomalidomide in 96 solvent compositions at 50°C and subjected to four conditions: slurry, evaporation, cooling, and precipitation. […] Solvents were then added, as binary gradients consisting of main solvent and co-solvent, to give a total of 150 µl, in each of the 96 vials (see Table 6 for the exact composition of each vial). […] For each of the evaporation, precipitation, and cooling experiments, approximately 8 mg of a solid sample of pomalidomide (e.g., Form A) was delivered to each position of the plate. Solvents were added to the master plate, as binary gradients consisting of main solvent and co-solvent, to give a total volume of 800 µT in each of the 96 vials (see Table 7 for the exact composition of each vial). The master plate, containing pomalidomide and solvents, was then equilibrated by stirring for 2 hours at 50°C. Upon completion of the equilibration cycle, the supernatant was aspirated into a four-tipped needle assembly and transferred to a sealed parallel filtration assembly. The mixtures were forced through the filtration assembly using positive pressure and the filtrates were collected in an array of glass vials. The filtered solutions were subsequently aspirated into the four-tipped assembly and aliquots were dispensed to an array of glass vials for subsequent LC analysis to determine approximate concentrations of pomalidomide in each solvent composition at the beginning of the experiments (Table 8). Both the four-tipped needle assembly and filtration assembly were maintained at the equilibration temperature of 50°C throughout the entire transfer process.
The results correspond to the solvent systems described in Table 7, equilibrated at 50°C for 2 hours. […] The approximate concentrations were determined by LC.

Nc1cccc2c1C(=O)N(C1CCC(=O)NC1=O)C2=O (centres unmarked) [Pomalidomide, 4-amino-2-(2,6-dioxopiperidine-3-yl)isoindoline-1,3-dione]
solubility ([1]; Methyl t-butyl ether): 1030 µg/mL
solubility ([1]; acetone, 25 °C, organic solvent or mixture, thermodynamic from solid, Acetone, read-out: Solubility): 1990 µg/mL
solubility ([1]; acetonitrile, 25 °C, organic solvent or mixture, thermodynamic from solid, Acetonitrile, read-out: Solubility): 1270 µg/mL
solubility ([1]; ethanol/water (1:1), 25 °C, aqueous with cosolvent or surfactant or cyclodextrin, thermodynamic from solid, Ethanol/Water (1:1), read-out: Solubility): 540 µg/mL
solubility ([1]; methyl ethyl ketone, 25 °C, organic solvent or mixture, thermodynamic from solid, Methyl ethyl ketone, read-out: Solubility): 1260 µg/mL
solubility ([1]; methyl t-butyl ether, 25 °C, organic solvent or mixture, thermodynamic from solid, Methyl t-butyl ether, read-out: Solubility): < 1000 µg/mL
solubility ([1]; methylene chloride, 25 °C, organic solvent or mixture, thermodynamic from solid, Methylene chloride, read-out: Solubility): 1450 µg/mL
solubility ([1]; tetrahydrofuran, 25 °C, organic solvent or mixture, thermodynamic from solid, Tetrahydrofuran, read-out: Solubility): 5260 µg/mL
solubility at 2 h ([2]; solvent system A4 of Table 7, read-out: Approximate Measured Solubility): 1440 µg/mL (≈ 5.27 mM)
solubility at 2 h ([2]; solvent system A5 of Table 7, read-out: Approximate Measured Solubility): 800 µg/mL (≈ 2.93 mM)
solubility at 2 h ([2]; solvent system A6 of Table 7, read-out: Approximate Measured Solubility): 280 µg/mL (≈ 1.02 mM)
solubility at 2 h ([2]; solvent system A7 of Table 7, read-out: Approximate Measured Solubility): 6980 µg/mL (≈ 25.5 mM)
solubility at 2 h ([2]; solvent system A8 of Table 7, read-out: Approximate Measured Solubility): 7940 µg/mL (≈ 29.1 mM)
solubility at 2 h ([2]; solvent system A9 of Table 7, read-out: Approximate Measured Solubility): 4410 µg/mL (≈ 16.1 mM)
solubility at 2 h ([2]; solvent system B1 of Table 7, read-out: Approximate Measured Solubility): 230 µg/mL (≈ 0.842 mM)
solubility at 2 h ([2]; solvent system B2 of Table 7, read-out: Approximate Measured Solubility): 790 µg/mL (≈ 2.89 mM)
solubility at 2 h ([2]; solvent system B3 of Table 7, read-out: Approximate Measured Solubility): 1030 µg/mL (≈ 3.77 mM)
solubility at 2 h ([2]; solvent system B4 of Table 7, read-out: Approximate Measured Solubility): 220 µg/mL (≈ 0.805 mM)
solubility at 2 h ([2]; solvent system B5 of Table 7, read-out: Approximate Measured Solubility): 360 µg/mL (≈ 1.32 mM)
solubility at 2 h ([2]; solvent system B6 of Table 7, read-out: Approximate Measured Solubility): 150 µg/mL (≈ 0.549 mM)
solubility at 2 h ([2]; solvent system B7 of Table 7, read-out: Approximate Measured Solubility): 3160 µg/mL (≈ 11.6 mM)
solubility at 2 h ([2]; solvent system B8 of Table 7, read-out: Approximate Measured Solubility): 1720 µg/mL (≈ 6.29 mM)
solubility at 2 h ([2]; solvent system B9 of Table 7, read-out: Approximate Measured Solubility): 920 µg/mL (≈ 3.37 mM)
solubility at 2 h ([2]; solvent system B10 of Table 7, read-out: Approximate Measured Solubility): 480 µg/mL (≈ 1.76 mM)
solubility at 2 h ([2]; solvent system B11 of Table 7, read-out: Approximate Measured Solubility): 180 µg/mL (≈ 0.659 mM)
solubility at 2 h ([2]; solvent system C1 of Table 7, read-out: Approximate Measured Solubility): 620 µg/mL (≈ 2.27 mM)
solubility at 2 h ([2]; solvent system C2 of Table 7, read-out: Approximate Measured Solubility): 1410 µg/mL (≈ 5.16 mM)
solubility at 2 h ([2]; solvent system C3 of Table 7, read-out: Approximate Measured Solubility): 1670 µg/mL (≈ 6.11 mM)
solubility at 2 h ([2]; solvent system C4 of Table 7, read-out: Approximate Measured Solubility): 480 µg/mL (≈ 1.76 mM)
solubility at 2 h ([2]; solvent system C5 of Table 7, read-out: Approximate Measured Solubility): 470 µg/mL (≈ 1.72 mM)
solubility at 2 h ([2]; solvent system C6 of Table 7, read-out: Approximate Measured Solubility): 260 µg/mL (≈ 0.952 mM)
solubility at 2 h ([2]; solvent system C7 of Table 7, read-out: Approximate Measured Solubility): 3710 µg/mL (≈ 13.6 mM)
solubility at 2 h ([2]; solvent system C8 of Table 7, read-out: Approximate Measured Solubility): 2970 µg/mL (≈ 10.9 mM)
solubility at 2 h ([2]; solvent system C9 of Table 7, read-out: Approximate Measured Solubility): 1840 µg/mL (≈ 6.73 mM)
solubility at 2 h ([2]; solvent system C10 of Table 7, read-out: Approximate Measured Solubility): 1090 µg/mL (≈ 3.99 mM)
solubility at 2 h ([2]; solvent system C11 of Table 7, read-out: Approximate Measured Solubility): 490 µg/mL (≈ 1.79 mM)
solubility at 2 h ([2]; solvent system C12 of Table 7, read-out: Approximate Measured Solubility): 340 µg/mL (≈ 1.24 mM)
solubility at 2 h ([2]; solvent system D1 of Table 7, read-out: Approximate Measured Solubility): 1530 µg/mL (≈ 5.6 mM)
solubility at 2 h ([2]; solvent system D2 of Table 7, read-out: Approximate Measured Solubility): 670 µg/mL (≈ 2.45 mM)
solubility at 2 h ([2]; solvent system D3 of Table 7, read-out: Approximate Measured Solubility): 3460 µg/mL (≈ 12.7 mM)
solubility at 2 h ([2]; solvent system D4 of Table 7, read-out: Approximate Measured Solubility): 2500 µg/mL (≈ 9.15 mM)
solubility at 2 h ([2]; solvent system D5 of Table 7, read-out: Approximate Measured Solubility): 1940 µg/mL (≈ 7.1 mM)
solubility at 2 h ([2]; solvent system D6 of Table 7, read-out: Approximate Measured Solubility): 490 µg/mL (≈ 1.79 mM)
solubility at 2 h ([2]; solvent system D7 of Table 7, read-out: Approximate Measured Solubility): 3700 µg/mL (≈ 13.5 mM)
solubility at 2 h ([2]; solvent system D8 of Table 7, read-out: Approximate Measured Solubility): 2310 µg/mL (≈ 8.45 mM)
solubility at 2 h ([2]; solvent system D10 of Table 7, read-out: Approximate Measured Solubility): 560 µg/mL (≈ 2.05 mM)
solubility at 2 h ([2]; solvent system D11 of Table 7, read-out: Approximate Measured Solubility): 1160 µg/mL (≈ 4.25 mM)
